Results as given in ChEMBL document CHEMBL2439994, “Synthesis and biological evaluation of hydrazidomycin analogues” (Bioorg Med Chem Lett, 2013).

Tests used:
HeLa = assay: Cytotoxicity against human HeLa cells after 72 hrs by methylene blue staining; format: functional
K562 = assay: Antiproliferative activity against human K562 cells after 72 hrs by resazurin dye reduction assay; format: functional; conditions: K562, 72 h
[1] = Antiproliferative activity against HUVEC after 72 hrs by resazurin dye reduction assay; format: cell-based; conditions: human, HUVEC cells
HT-29 = assay: Antiproliferative activity against human HT-29 cells after 72 hrs by resazurin dye reduction assay; format: functional; conditions: HT-29, 72 h

Row | GI50 (K562) | GI50 (HT-29) | SMILES | CC50 (HeLa) | GI50 at 72 h [1]
1 | 66.2 µM |  | CCCCCCCCCCCCCCNNC(=O)COC | 59.6 µM | 33.6 µM
2 | 167 µM |  | CCCCCCCCCCNNC(=O)COC | 138 µM | 156 µM
3 | > 110 µM |  | CCCCCCCCCCCCCCN(NC(=O)COC)C(=O)CCCCCCCCC | > 110 µM | 103 µM
4 | 97.3 µM |  | CCCCCCCCCCN(NC(=O)COC)C(=O)CCCCCCCCC | > 125 µM | 114 µM
5 | > 110 µM |  | CCCCCCCCCCCC/C=C/N(NC(=O)COC)C(=O)CCCCCCCCC | > 110 µM | 46.2 µM
6 | 18.4 µM |  | CCCCCCCCCCCC/C=C\N(NC(=O)CCl)C(=O)CCCCCCCCC | 104 µM | 57.5 µM
7 | 41.9 µM |  | CCCCCCCCCCCC/C=C\N(NC(C)=O)C(=O)CCCCCCCCC | 83.3 µM | 39.7 µM
8 | 41.4 µM |  | CCCCCCCCCCCC/C=C/N(NC(=O)COC)C(=O)OC(C)(C)C | 57.7 µM | 36.1 µM
9 | 45 µM |  | CCCCCCCC/C=C/N(NC(=O)COC)C(=O)OC(C)(C)C | 83.2 µM | 49.9 µM
10 | 28.3 µM |  | CCCCCCCCCCCC/C=C\N(NC(=O)COC)C(=O)OC(C)(C)C | 85.3 µM | 15.8 µM
11 | 61.3 µM |  | CCCCCCCC/C=C\N(NC(=O)COC)C(=O)OC(C)(C)C | 104 µM | 85.5 µM
12 | 40.6 µM |  | CCCCCCCCCCN(NC(=O)COC)C(=O)OC(C)(C)C | 104 µM | 22.9 µM
13 | 40.9 µM |  | CCCCCCCCCCCCCCN(NC(=O)COC)C(=O)OC(C)(C)C | 41.9 µM | 12.2 µM
14 | 58.7 µM |  | CCCCCCCCCCCCCCN(N)C(=O)OC(C)(C)C | 96.5 µM | 27.1 µM
15 | > 110 µM | 0.46 µM | CCCCCCCCCCCC/C=C\N(NC(=O)COC)C(=O)CCCCCCCCC [HYDRAZIDOMYCIN A] | 108 µM | 70.7 µM
